In the NIST ThermoML archive (doi:10.1016/j.tca.2018.11.018):

Test: xn = mol fraction of the nth substance listed
Settings: 100 kPa, Liquid; for viscosity: Falling or rolling sphere viscometry; for mass density: Vibrating tube method

CCCC[n+]1ccccc1.[Br-] [1-butylpyridinium bromide] + O
Settings | mass density [kg/m3] | viscosity [mPa·s]
298.15 K, x1 = 0.03 | 1068.5 | 1.544
298.15 K, x1 = 0.06 | 1118.5 | 2.378
298.15 K, x1 = 0.09 | 1154.8 | 3.424
298.15 K, x1 = 0.13 | 1189.9 | 5.218
298.15 K, x1 = 0.17 | 1214.8 | 8.606
298.15 K, x1 = 0.211 | 1233.8 | 12.22
298.15 K, x1 = 0.25 | 1247.8 | 16.44
298.15 K, x1 = 0.291 | 1259.5 | 24.37
298.15 K, x1 = 0.332 | 1268.9 | 30.3
298.15 K, x1 = 0.377 | 1277.4 | 42.55
303.15 K, x1 = 0.03 | 1066.2 | 1.36
303.15 K, x1 = 0.06 | 1115.6 | 2.067
303.15 K, x1 = 0.09 | 1151.6 | 2.951
303.15 K, x1 = 0.13 | 1186.5 | 4.45
303.15 K, x1 = 0.17 | 1211.3 | 7.401
303.15 K, x1 = 0.211 | 1230.3 | 10.37
303.15 K, x1 = 0.25 | 1244.4 | 13.83
303.15 K, x1 = 0.291 | 1256.1 | 18.59
303.15 K, x1 = 0.332 | 1265.6 | 24.78
303.15 K, x1 = 0.377 | 1274 | 34.24
308.15 K, x1 = 0.03 | 1063.8 | 1.212
308.15 K, x1 = 0.06 | 1112.6 | 1.82
308.15 K, x1 = 0.09 | 1148.3 | 2.575
308.15 K, x1 = 0.13 | 1183 | 3.851
308.15 K, x1 = 0.17 | 1207.8 | 6.345
308.15 K, x1 = 0.211 | 1226.8 | 8.845
308.15 K, x1 = 0.25 | 1240.9 | 11.68
308.15 K, x1 = 0.291 | 1252.7 | 15.55
308.15 K, x1 = 0.332 | 1262.2 | 20.41
308.15 K, x1 = 0.377 | 1270.7 | 27.78
313.15 K, x1 = 0.03 | 1061.2 | 1.089
313.15 K, x1 = 0.06 | 1109.6 | 1.617
313.15 K, x1 = 0.09 | 1145 | 2.268
313.15 K, x1 = 0.13 | 1179.5 | 3.356
313.15 K, x1 = 0.17 | 1204.2 | 5.426
313.15 K, x1 = 0.211 | 1223.3 | 7.548
313.15 K, x1 = 0.25 | 1237.5 | 10.01
313.15 K, x1 = 0.291 | 1249.3 | 13.05
313.15 K, x1 = 0.332 | 1258.8 | 16.97
313.15 K, x1 = 0.377 | 1267.3 | 22.77
318.15 K, x1 = 0.03 | 1058.6 | 0.985
318.15 K, x1 = 0.06 | 1106.4 | 1.447
318.15 K, x1 = 0.09 | 1141.6 | 2.014
318.15 K, x1 = 0.13 | 1176 | 2.954
318.15 K, x1 = 0.17 | 1200.7 | 4.671
318.15 K, x1 = 0.211 | 1219.8 | 6.488
318.15 K, x1 = 0.25 | 1234 | 8.493
318.15 K, x1 = 0.291 | 1245.9 | 11.08
318.15 K, x1 = 0.332 | 1255.4 | 14.29
318.15 K, x1 = 0.377 | 1264 | 18.95
323.15 K, x1 = 0.03 | 1055.7 | 0.897
323.15 K, x1 = 0.06 | 1103.2 | 1.306
323.15 K, x1 = 0.09 | 1138.1 | 1.805
323.15 K, x1 = 0.13 | 1172.4 | 2.617
323.15 K, x1 = 0.17 | 1197.1 | 4.051
323.15 K, x1 = 0.211 | 1216.3 | 5.616
323.15 K, x1 = 0.25 | 1230.5 | 7.331
323.15 K, x1 = 0.291 | 1242.4 | 9.521
323.15 K, x1 = 0.332 | 1252 | 12.17
323.15 K, x1 = 0.377 | 1260.6 | 15.95
328.15 K, x1 = 0.03 | 1052.8 | 0.822
328.15 K, x1 = 0.06 | 1099.9 | 1.185
328.15 K, x1 = 0.09 | 1134.7 | 1.623
328.15 K, x1 = 0.13 | 1168.8 | 2.359
328.15 K, x1 = 0.17 | 1193.5 | 3.564
328.15 K, x1 = 0.211 | 1212.7 | 4.914
328.15 K, x1 = 0.25 | 1227 | 6.394
328.15 K, x1 = 0.291 | 1239 | 8.281
328.15 K, x1 = 0.332 | 1248.6 | 10.52
328.15 K, x1 = 0.377 | 1257.3 | 13.65
333.15 K, x1 = 0.03 | 1049.9 | 0.758
333.15 K, x1 = 0.06 | 1096.5 | 1.081
333.15 K, x1 = 0.09 | 1131.1 | 1.474
333.15 K, x1 = 0.13 | 1165.2 | 2.113
333.15 K, x1 = 0.17 | 1189.9 | 3.178
333.15 K, x1 = 0.211 | 1209.1 | 4.327
333.15 K, x1 = 0.25 | 1223.4 | 5.626
333.15 K, x1 = 0.291 | 1235.5 | 7.256
333.15 K, x1 = 0.332 | 1245.4 | 9.187
333.15 K, x1 = 0.377 | 1253.9 | 11.84
338.15 K, x1 = 0.03 | 1046.6 | 0.704
338.15 K, x1 = 0.06 | 1092.8 | 1.002
338.15 K, x1 = 0.09 | 1127.5 | 1.353
338.15 K, x1 = 0.13 | 1161.5 | 1.912
338.15 K, x1 = 0.17 | 1186.2 | 2.852
338.15 K, x1 = 0.211 | 1205.5 | 3.835
338.15 K, x1 = 0.25 | 1219.9 | 4.96
338.15 K, x1 = 0.291 | 1232 | 6.395
338.15 K, x1 = 0.332 | 1241.8 | 8.064
338.15 K, x1 = 0.377 | 1250.6 | 10.31
343.15 K, x1 = 0.03 | 1043.2 | 0.66
343.15 K, x1 = 0.06 | 1089.5 | 0.92
343.15 K, x1 = 0.09 | 1123.9 | 1.235
343.15 K, x1 = 0.13 | 1157.8 | 1.741
343.15 K, x1 = 0.17 | 1182.6 | 2.367
343.15 K, x1 = 0.211 | 1201.9 | 3.463
343.15 K, x1 = 0.25 | 1216.3 | 4.428
343.15 K, x1 = 0.291 | 1228.5 | 5.687
343.15 K, x1 = 0.332 | 1238.3 | 7.153
343.15 K, x1 = 0.377 | 1247.2 | 9.118
348.15 K, x1 = 0.03 | 1039.8 | 0.618
348.15 K, x1 = 0.06 | 1086 | 0.862
348.15 K, x1 = 0.09 | 1120.1 | 1.139
348.15 K, x1 = 0.13 | 1154.1 | 1.591
348.15 K, x1 = 0.17 | 1178.9 | 2.149
348.15 K, x1 = 0.211 | 1198.3 | 3.138
348.15 K, x1 = 0.25 | 1212.8 | 3.971
348.15 K, x1 = 0.291 | 1225 | 5.06
348.15 K, x1 = 0.332 | 1234.9 | 6.384
348.15 K, x1 = 0.377 | 1243.8 | 8.095
